Test results taken from patent US8507219B2, “Method of treating inflammation with statins” (MUSC Foundation for Research Development, priority 1997, dated 2013).

Tests used:
NF-kβ = format: cell-based, rat; settings: LPS 1.0 μg/ml, 1 h
Protocol: Preparation of Nuclear Extracts and Electrophoretic Mobility shift assay Nuclear extracts from stimulated or unstimulated astrocytes (1×10^7 cells) were prepared using the method of Dignam et al. (1983) with slight modification. Cells were harvested, washed twice with ice-cold phosphate-buffered saline and lysed in 400 μl of buffer A (10 mM HEPES, pH 7.9, 10 mM KCl, 2 mM MgCl2, 0.5 mM DTT, 1 mM PMSF, 5 μg/ml aprotinin, 5 μg/ml pepstatin A, and 5 μg/ml leupeptin (Sigma, St. Louis, Mo.) containing 0.1% Nondet P-40 for 15 min on ice, vortexed vigorously for 15 s, and centrifuged at 14,000 rpm for 30 s. The pelleted nuclei were resuspended in 40 μl of buffer B (20 mM HEPES, pH 7.9, 25% (v/v) glycerol, 0.42 M NaCl, 1.5 mM MgCl2, 0.2 mM EDTA, 0.5 mM DTT, 1 mM PMSF, 5 μg/ml aprotinin, 5 μg/ml pepstatin A, and 5 μg/ml leupeptin). After 30 min on ice, lysates were centrifuged at 14,000 rpm for 10 min. Supernatants containing the nuclear proteins were diluted with 20 μl of modified buffer C (20 mM HEPES, pH 7.9, 20% (v/v) glycerol, 0.05 M KCl, 0.2 mM EDTA, 0.5 mM DTT, and 0.5 mM PMSF) and stored at −70° C. until use. Nuclear extracts were used for the electrophoretic mobility shift assay using the NF-kβ DNA binding protein detection system kit (GIBCO/BRL), according to the manufacturer's protocol.
Preparation of nuclear extracts and electrophoretic mobility shift assay Nuclear extracts from stimulated or unstimulated astrocytes (1×10^7 cells) were prepared as described (Dignam et al., 1983) with slight modification. Cells were harvested, washed twice with ice-cold phosphate-buffered saline and lysed in 400 μl of buffer A (10 mM HEPES, pH 7.9, 10 mM KCl, 2 mM MgCl2, 0.5 mM DTT, 1 mM PMSF, 5 μg/ml aprotinin, 5 μg/ml pepstatin A, and 5 μg/ml leupeptin) containing 0.1% Nonidet P40 for 15 min on ice, vortexed vigorously for 15 s, and centrifuged at 14,000 rpm for 30 s. […]

[1] = tested on: iNOS activity in rat primary astrocytes; experiment: iNOS activity (arginine to citrulline) in homogenates of treated rat primary astrocytes; format: cell-based; settings: 10 μM
Protocol: NOS activity was measured directly by production of L-[2,3,4,5-^3H]citrulline from L-[2,3,4,5-^3H] arginine (Feinstein et al., 1994a). […] Assays were carried out for 30 to 40 min and the production of L-[2,3,4,5-^3H] citrulline was linear. The reactions were stopped by addition of 800 μl of ice-cold 20 mM HEPES (pH 5.5) followed by addition of 2 ml of Dowex-50W equilibrated in the same buffer. The samples were then centrifuged and the concentration of L-[^3H]citrulline was determined in the supernatant by liquid scintillation counting.
Dose Dependence of Forskolin Inhibition of the LPS Stimulation of iNOS Astrocytes were incubated with different concentrations of forskolin 15 min before the addition of 1 μg/ml LPS, and after 24 h the iNOS activity was measured as nitrite concentrations in the supernatant and conversion of arginine to citrulline in the cellular homogenates (FIG. 1). The level of nitrite and iNOS activity were inhibited to a similar degree at all the concentrations of forskolin tested. […] . […] This may be due to the fact that PKA was already completely activated in extracts of cells incubated with 10 μM forskolin. The PKA activity increased with the increase in forskolin concentration. The reciprocal relationship of production of NO and iNOS activity with PKA activity supports the conclusion that PKA plays a pivotal role in the regulation of iNOS expression in astrocytes.

[2] = tested on: control human skin fibroblasts; experiment: β-oxidation of lignoceric acid in control human skin fibroblasts; format: cell-based
[3] = tested on: cultured skin fibroblasts of X-ALD; experiment: VLCFA ratios (C26:0/C22:0, C24:0/C22:0) in X-ALD skin fibroblasts; format: cell-based, human; settings: about 15 days of treatment

| Structure (SMILES) | LPS-induced activation of NF-kβ (NF-kβ) | LPS induced iNOS activity and PKA activity [1] | Lignoceric acid β-oxidation [2] [pmol/h/mg protein] | ratios of C26:0/C22:0 and C24:0/C22:0 / level of VLCFA [3] |
| --- | --- | --- | --- | --- |
| COc1cccc(-c2cc(=O)c3ccccc3o2)c1N [PD 98059] | inhibits the LPS-induced activation of NF-kB and the induction of iNOS in astrocytes | – | – | – |
| C=C[C@@]1(C)CC(=O)[C@@H]2[C@@]3(C)CCCC(C)(C)[C@@H]3[C@H](O)[C@H](OC(C)=O)[C@@]2(C)O1 [dideoxyforskolin, 1,9-dideoxyforskolin] | – | neither inhibited the LPS induced iNOS activity nor stimulated the PKA activity | 571.4 ± 39.6 | had no effect on the ratios of C26:0/C22:0 and C24:0/C22:0 |
